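Five concentrations, 48 hours, 96-well plates. GI50 is the concentration that inhibits growth by half. TGI is the concentration that stops growth completely.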

Test systems include UO-31 renal; UACC-257 melanoma; HT29 colon; TK-10 renal; OVCAR-4 ovarian; IGROV1 ovarian; HOP-92 NSCLC; SK-OV-3 ovarian; SK-MEL-28 melanoma; SNB-75 CNS; MOLT-4 leukemia; OVCAR-8 ovarian; HL-60(TB) leukemia.
Holding throughout (assay): NCI-60 cell line screen, 48 h

In the case of `O=C(O)c1ccccc1CN1CCCC(C(=O)O)C1` (configuration not stated), the TGI in the assay with UO-31 renal, with UACC-257 melanoma, in the assay with HT29 colon, in the assay on TK-10 renal, in the assay on OVCAR-4 ovarian and in the assay on IGROV1 ovarian was more than 100 µM each time. Also, the TGI in the assay with HOP-92 NSCLC, with SK-OV-3 ovarian, in the assay on SK-MEL-28 melanoma, in the assay with SNB-75 CNS, in the assay on MOLT-4 leukemia and with OVCAR-8 ovarian was more than 100 µM throughout.
As to `CC(C)(C)[Si](C)(C)OCC1OC(n2cnc3c(N)ncnc32)C2OC(=S)OC12` (configuration not stated), the TGI in the assay with UO-31 renal is 78.3 µM; in the assay with UACC-257 melanoma, more than 100 µM; in the assay with HT29 colon it was more than 100 µM; in the assay on TK-10 renal, more than 100 µM; in the assay on OVCAR-4 ovarian, more than 100 µM; with HL-60(TB) leukemia, more than 100 µM. Also, the TGI with IGROV1 ovarian is more than 100 µM; in the assay with HOP-92 NSCLC, more than 100 µM; in the assay with SK-OV-3 ovarian it was 97 µM; in the assay on SK-MEL-28 melanoma it was more than 100 µM; with SNB-75 CNS it was more than 100 µM; in the assay with MOLT-4 leukemia, 69.3 µM. The compound also came in with a TGI in the assay on OVCAR-8 ovarian of more than 100 µM.
`Nc1ccccc1N`: the TGI in the assay on UO-31 renal is more than 100 µM; with HT29 colon, more than 100 µM; in the assay on TK-10 renal, more than 100 µM; in the assay with OVCAR-4 ovarian, more than 100 µM; with HL-60(TB) leukemia, 70.3 µM; in the assay on IGROV1 ovarian, more than 100 µM. Besides, the TGI in the assay with HOP-92 NSCLC, in the assay with SK-OV-3 ovarian, with SK-MEL-28 melanoma, in the assay with SNB-75 CNS, in the assay on MOLT-4 leukemia and in the assay with OVCAR-8 ovarian was more than 100 µM throughout.
Turning to `CCOc1ccc(/C=C2\N=C(c3ccccc3)OC2=O)cc1`, the TGI in the assay with UO-31 renal, with UACC-257 melanoma, with HT29 colon, in the assay on TK-10 renal, in the assay on OVCAR-4 ovarian and with HL-60(TB) leukemia was more than 100 µM throughout. In addition, the TGI in the assay with IGROV1 ovarian, in the assay on HOP-92 NSCLC, in the assay on SK-OV-3 ovarian, in the assay with SK-MEL-28 melanoma, with SNB-75 CNS and in the assay on MOLT-4 leukemia was more than 100 µM in each case. Moreover, the TGI with OVCAR-8 ovarian is more than 100 µM.
Turning to `NCCCCCC(CCN)SCC1OC(n2cnc3c(N)ncnc32)C(O)C1O` (configuration not stated), the TGI in the assay with UO-31 renal was more than 1320 µM; with UACC-257 melanoma, more than 1500 µM; with HT29 colon it was more than 1500 µM; with OVCAR-4 ovarian, more than 1500 µM; with HL-60(TB) leukemia it was more than 1500 µM; with IGROV1 ovarian, more than 1500 µM. For the same compound, the TGI in the assay with HOP-92 NSCLC was more than 1240 µM; in the assay with SK-OV-3 ovarian it was more than 1500 µM; in the assay on SK-MEL-28 melanoma it was more than 1500 µM; with SNB-75 CNS, more than 1500 µM; in the assay on MOLT-4 leukemia it was more than 1500 µM; in the assay on OVCAR-8 ovarian, more than 1500 µM.
Turning to `Cc1cccc2cc(/C=C/C(=O)/C=C/c3ccc(Cl)cc3)c(=O)[nH]c12`, the GI50 is more than 100 µM with UACC-257 melanoma; more than 100 µM in the assay with TK-10 renal; more than 100 µM in the assay with OVCAR-4 ovarian; more than 100 µM with HOP-92 NSCLC; more than 100 µM in the assay on SK-OV-3 ovarian; 16.8 µM in the assay on SNB-75 CNS. Moreover, the GI50 in the assay with MOLT-4 leukemia was 5.69 µM. In addition, the TGI with UACC-257 melanoma, in the assay with TK-10 renal, in the assay on OVCAR-4 ovarian, in the assay on HOP-92 NSCLC, with SK-OV-3 ovarian and with SNB-75 CNS was more than 100 µM each time. In addition, in the assay on MOLT-4 leukemia, the TGI was more than 100 µM.
In the case of `COc1ccc(-c2cc(N3CCN(c4ccc(Cl)cc4)CC3)c(C#N)c(=O)o2)cc1`, the TGI is 30.5 µM with UO-31 renal; 73.1 µM with UACC-257 melanoma; more than 100 µM in the assay with HT29 colon; 37.7 µM in the assay with TK-10 renal; 5.07 µM in the assay with OVCAR-4 ovarian; more than 100 µM with HL-60(TB) leukemia. In addition, the TGI with IGROV1 ovarian is 42.4 µM; in the assay on HOP-92 NSCLC, more than 100 µM; in the assay with SK-MEL-28 melanoma, 23.3 µM; in the assay with SNB-75 CNS it was 10.8 µM; in the assay on OVCAR-8 ovarian, 19.1 µM.
As for `CN1C2CCC1/C(=C/c1cccc3c1OCO3)C(=O)/C2=C\c1cccc2c1OCO2`, the TGI in the assay on UO-31 renal was more than 100 µM; with UACC-257 melanoma, more than 100 µM; with HT29 colon, more than 100 µM; in the assay with TK-10 renal, 56.2 µM; with HL-60(TB) leukemia, more than 100 µM; with IGROV1 ovarian, more than 100 µM. Moreover, the TGI in the assay on HOP-92 NSCLC is 98.7 µM; in the assay with SK-OV-3 ovarian it was more than 100 µM; in the assay with SK-MEL-28 melanoma it was more than 100 µM; with SNB-75 CNS, 49.7 µM; in the assay with MOLT-4 leukemia, more than 100 µM; in the assay on OVCAR-8 ovarian, more than 100 µM.
Take `COC(=O)/C=C1\SC2(OC1=Nc1ccccc1)C1CC3CC(C1)CC2C3` (configuration not stated): the TGI with UO-31 renal, in the assay on UACC-257 melanoma, in the assay on HT29 colon, in the assay with TK-10 renal, in the assay on OVCAR-4 ovarian and with HL-60(TB) leukemia was more than 100 µM throughout. In addition, the TGI in the assay on IGROV1 ovarian, with HOP-92 NSCLC, in the assay with SK-OV-3 ovarian, in the assay with SK-MEL-28 melanoma, in the assay on SNB-75 CNS and in the assay with MOLT-4 leukemia was more than 100 µM in each case. In addition, the TGI in the assay with OVCAR-8 ovarian was more than 100 µM.
With `CCOC(=O)CC1=N/C(=N/C(=N)N[N+](=O)[O-])SC1`, the TGI in the assay with UO-31 renal, in the assay on UACC-257 melanoma, in the assay with HT29 colon, with TK-10 renal, with OVCAR-4 ovarian and in the assay on HL-60(TB) leukemia was more than 100 µM in each case. The TGI with IGROV1 ovarian, in the assay with HOP-92 NSCLC, with SK-OV-3 ovarian, with SK-MEL-28 melanoma, with SNB-75 CNS and in the assay on OVCAR-8 ovarian was more than 100 µM each time.
Regarding `Fc1ccc(Nc2nc(Cl)c3[nH]cnc3n2)cc1Cl`, the TGI in the assay on UO-31 renal is 33.5 µM; with UACC-257 melanoma, more than 100 µM; in the assay with HT29 colon, more than 100 µM; in the assay on TK-10 renal, more than 100 µM; in the assay with OVCAR-4 ovarian, more than 100 µM; in the assay on HL-60(TB) leukemia it was more than 100 µM. In addition, the TGI in the assay with IGROV1 ovarian, in the assay with HOP-92 NSCLC, with SK-OV-3 ovarian, in the assay on SK-MEL-28 melanoma, in the assay with SNB-75 CNS and in the assay on MOLT-4 leukemia was more than 100 µM throughout. This compound registered a TGI in the assay with OVCAR-8 ovarian of more than 100 µM.
Regarding `NC(Cc1ccc(CP(=O)(O)O)cc1)C(=O)O` (configuration not stated), the TGI in the assay on UO-31 renal, in the assay with UACC-257 melanoma, in the assay on HT29 colon, in the assay on TK-10 renal, in the assay with OVCAR-4 ovarian and with HL-60(TB) leukemia was more than 100 µM in each case. In addition, the TGI in the assay on IGROV1 ovarian, in the assay with HOP-92 NSCLC, in the assay on SK-OV-3 ovarian, in the assay with SK-MEL-28 melanoma, with SNB-75 CNS and in the assay with MOLT-4 leukemia was more than 100 µM throughout. The TGI in the assay on OVCAR-8 ovarian was more than 100 µM.
Take `C/C(=N/NC(=O)c1ccncc1)C(F)(F)F`: the TGI in the assay on UO-31 renal, with HT29 colon, in the assay with TK-10 renal, in the assay with HL-60(TB) leukemia, in the assay with IGROV1 ovarian and in the assay on HOP-92 NSCLC was more than 100 µM throughout. For the same compound, the TGI with SK-OV-3 ovarian, in the assay on SK-MEL-28 melanoma, in the assay on SNB-75 CNS, in the assay on MOLT-4 leukemia and in the assay on OVCAR-8 ovarian was more than 100 µM each time.
In the case of `C=C=C[P+](c1ccccc1)(c1ccccc1)c1ccccc1`, the TGI with UO-31 renal is more than 100 µM; in the assay on UACC-257 melanoma, 39.5 µM; with TK-10 renal, 78.2 µM; with OVCAR-4 ovarian it was more than 100 µM; in the assay on HL-60(TB) leukemia, 23.4 µM; in the assay with IGROV1 ovarian, more than 100 µM. The TGI in the assay with SK-OV-3 ovarian is more than 100 µM; in the assay with SK-MEL-28 melanoma, 77.7 µM; in the assay on SNB-75 CNS, 44.9 µM; in the assay with MOLT-4 leukemia, 16.2 µM; with OVCAR-8 ovarian, more than 100 µM.
